Results as given in patent publication US10011590B2, “Crystalline forms of vilazodone hydrochloride and vilazodone free base” (DR. REDDY'S LABORATORIES LIMITED, priority 2012, dated 2018).

Assay: Effect of variation of water (and solvent) content on stability and PXRD pattern of the solid form
Format: physicochemical
Details: for effect of variation of water content on stability and PXRD pattern: variation of water content within the stated range

Compound: Cl.N#Cc1ccc2[nH]cc(CCCCN3CCN(c4ccc5oc(C(N)=O)cc5c4)CC3)c2c1 [Form D, 2-benzofurancarboxamide, 5-[4-[4-(5-cyano-1H-indol-3-yl)butyl]-1-piperazinyl]-, hydrochloride (1:1)]
- effect of variation of water and solvents on stability and PXRD pattern (variation of water and solvent content of the mixed solvates): may not affect the stability and PXRD pattern

Compound: Cl.N#Cc1ccc2[nH]cc(CCCCN3CCN(c4ccc5oc(C(N)=O)cc5c4)CC3)c2c1 [Form B, 2-benzofurancarboxamide, 5-[4-[4-(5-cyano-1H-indol-3-yl)butyl]-1-piperazinyl]-, hydrochloride (1:1)]
- effect of variation of water content on stability and PXRD pattern (listed as crystalline form B of vilazodone hydrochloride): may not affect the stability and PXRD pattern

Compound: Cl.N#Cc1ccc2[nH]cc(CCCCN3CCN(c4ccc5oc(C(N)=O)cc5c4)CC3)c2c1 [2-benzofurancarboxamide, 5-[4-[4-(5-cyano-1H-indol-3-yl)butyl]-1-piperazinyl]-, hydrochloride (1:1)]
- effect of variation of water content on stability and PXRD pattern: does not affect the stability and PXRD pattern

Compound: N#Cc1ccc2[nH]cc(CCCCN3CCN(c4ccc5oc(C(N)=O)cc5c4)CC3)c2c1 [form I of vilazodone free base, vilazodone free base]
- effect of variation of water content on stability and PXRD pattern: does not affect the stability and PXRD pattern

Compound: Cl.N#Cc1ccc2[nH]cc(CCCCN3CCN(c4ccc5oc(C(N)=O)cc5c4)CC3)c2c1 [Form C, 2-benzofurancarboxamide, 5-[4-[4-(5-cyano-1H-indol-3-yl)butyl]-1-piperazinyl]-, hydrochloride (1:1)]
- effect of variation of water content on stability and PXRD pattern (listed as vilazodone hydrochloride crystalline form C): may not affect the stability and PXRD pattern
